Source: ChEMBL document CHEMBL5375952, “Discovery of Novel 8-Hydroxyquinoline Derivatives with Potent In Vitro and In Vivo Antifungal Activity” (J Med Chem, 2023)
In brackets after ≈: the same amount, converted by molar mass.

Legend:
[1] = test system: [Candida] auris; experiment: Antifungal activity against Candida auris 277 assessed as fungal growth inhibition incubated for 48 hrs by broth microdilution method; type: functional; details: Candidozyma auris
[2] = test system: Candida albicans; experiment: Antifungal activity against Candida albicans 337 assessed as fungal growth inhibition incubated for 48 hrs by broth microdilution method; type: functional
[3] = test system: Pichia kudriavzevii; experiment: Antifungal activity against Candida krusei 68 assessed as fungal growth inhibition incubated for 48 hrs by broth microdilution method; type: functional
[4] = test system: Cryptococcus neoformans; experiment: Antifungal activity against Cryptococcus neoformans HN2-40 assessed as fungal growth inhibition incubated for 48 hrs by broth microdilution method; type: functional
[5] = test system: Aspergillus fumigatus; experiment: Antifungal activity against Aspergillus fumigatus 7544 assessed as fungal growth inhibition incubated for 48 hrs by broth microdilution method; type: functional
[6] = test system: Cryptococcus neoformans; experiment: Antifungal activity against Cryptococcus neoformans 443 assessed as fungal growth inhibition incubated for 48 hrs by broth microdilution method; type: functional
[7] = Antifungal activity against Cryptococcus gattii WM179 assessed as fungal growth inhibition incubated for 48 hrs by broth microdilution method; type: functional, Cryptococcus gattii VGI
[8] = test system: Nakaseomyces glabratus; experiment: Antifungal activity against Candida glabrata 201 assessed as fungal growth inhibition incubated for 48 hrs by broth microdilution method; type: functional
[9] = test system: [Candida] auris; experiment: Antifungal activity against Candida auris 278 assessed as fungal growth inhibition incubated for 48 hrs by broth microdilution method; type: functional; details: Candidozyma auris
[10] = test system: Cryptococcus neoformans; experiment: Antifungal activity against Cryptococcus neoformans HN19 assessed as fungal growth inhibition incubated for 48 hrs by broth microdilution method; type: functional
[11] = test system: Candida tropicalis; experiment: Antifungal activity against Candida tropicalis 184 assessed as fungal growth inhibition incubated for 48 hrs by broth microdilution method; type: functional
[12] = test system: Aspergillus fumigatus; experiment: Antifungal activity against Aspergillus fumigatus A assessed as fungal growth inhibition incubated for 48 hrs by broth microdilution method; type: functional
[13] = test system: Candida tropicalis; experiment: Antifungal activity against Candida tropicalis 177 assessed as fungal growth inhibition incubated for 48 hrs by broth microdilution method; type: functional
[14] = test system: Candida tropicalis; experiment: Antifungal activity against Candida tropicalis 176 assessed as fungal growth inhibition incubated for 48 hrs by broth microdilution method; type: functional
[15] = test system: Cryptococcus neoformans; experiment: Antifungal activity against Cryptococcus neoformans HN17 assessed as fungal growth inhibition incubated for 48 hrs by broth microdilution method; type: functional
[16] = test system: Nakaseomyces glabratus; experiment: Antifungal activity against Candida glabrata 222 assessed as fungal growth inhibition incubated for 48 hrs by broth microdilution method; type: functional
[17] = test system: Candida albicans; experiment: Antifungal activity against Candida albicans 21 assessed as fungal growth inhibition incubated for 48 hrs by broth microdilution method; type: functional
[18] = test system: Cryptococcus neoformans; experiment: Antifungal activity against Cryptococcus neoformans 444 assessed as fungal growth inhibition incubated for 48 hrs by broth microdilution method; type: functional
[19] = test system: Candida albicans; experiment: Antifungal activity against Candida albicans 338 assessed as fungal growth inhibition incubated for 48 hrs by broth microdilution method; type: functional
[20] = test system: Pichia kudriavzevii; experiment: Antifungal activity against Candida krusei 471 assessed as fungal growth inhibition incubated for 48 hrs by broth microdilution method; type: functional
[21] = Cytotoxicity against human Caco-2 cells assessed as cell growth inhibition incubated for 24 hrs by CCK8 assay; type: toxicity, cell-based
[22] = Antifungal activity against Cryptococcus gattii SCZ20024 assessed as fungal growth inhibition incubated for 48 hrs by broth microdilution method; type: functional, Cryptococcus gattii VGI
[23] = test system: Nakaseomyces glabratus; experiment: Antifungal activity against Candida glabrata 203 assessed as fungal growth inhibition incubated for 48 hrs by broth microdilution method; type: functional
[24] = test system: Candida parapsilosis; experiment: Antifungal activity against Candida parapsilosis 125 assessed as fungal growth inhibition incubated for 48 hrs by broth microdilution method; type: functional; details: Lodderomyces parapsilosis
[25] = test system: [Candida] auris; experiment: Antifungal activity against Candida auris 887 assessed as fungal growth inhibition incubated for 48 hrs by broth microdilution method; type: functional; details: Candidozyma auris
[26] = test system: Cryptococcus neoformans; experiment: Antifungal activity against Cryptococcus neoformans 56992 assessed as fungal growth inhibition incubated for 48 hrs by broth microdilution method; type: functional
[27] = test system: Pichia kudriavzevii; experiment: Antifungal activity against Candida krusei 472 assessed as fungal growth inhibition incubated for 48 hrs by broth microdilution method; type: functional
[28] = test system: Candida parapsilosis; experiment: Antifungal activity against Candida parapsilosis 107 assessed as fungal growth inhibition incubated for 48 hrs by broth microdilution method; type: functional; details: Lodderomyces parapsilosis
[29] = test system: Candida albicans; experiment: Antifungal activity against Candida albicans SC5314 assessed as fungal growth inhibition incubated for 48 hrs by broth microdilution method; type: functional
[30] = test system: Pichia kudriavzevii; experiment: Antifungal activity against Candida krusei 477 assessed as fungal growth inhibition incubated for 48 hrs by broth microdilution method; type: functional
[31] = test system: [Candida] auris; experiment: Antifungal activity against Candida auris 276 assessed as fungal growth inhibition incubated for 48 hrs by broth microdilution method; type: functional; details: Candidozyma auris
[32] = test system: Nakaseomyces glabratus; experiment: Antifungal activity against Candida glabrata 202 assessed as fungal growth inhibition incubated for 48 hrs by broth microdilution method; type: functional
[33] = test system: Pichia kudriavzevii; experiment: Antifungal activity against Candida krusei 69 assessed as fungal growth inhibition incubated for 48 hrs by broth microdilution method; type: functional
[34] = test system: Cryptococcus neoformans; experiment: Antifungal activity against Cryptococcus neoformans BJ3 assessed as fungal growth inhibition incubated for 48 hrs by broth microdilution method; type: functional
[35] = test system: Cryptococcus neoformans; experiment: Antifungal activity against Cryptococcus neoformans HN2 assessed as fungal growth inhibition incubated for 48 hrs by broth microdilution method; type: functional
[36] = test system: Nakaseomyces glabratus; experiment: Antifungal activity against Candida glabrata 204 assessed as fungal growth inhibition incubated for 48 hrs by broth microdilution method; type: functional
[37] = test system: [Candida] auris; experiment: Antifungal activity against Candida auris CBS 12372 assessed as fungal growth inhibition incubated for 48 hrs by broth microdilution method; type: functional; details: Candidozyma auris
[38] = test system: Aspergillus fumigatus; experiment: Antifungal activity against Aspergillus fumigatus 023-12 assessed as fungal growth inhibition incubated for 48 hrs by broth microdilution method; type: functional
[39] = test system: Cryptococcus neoformans; experiment: Antifungal activity against Cryptococcus neoformans HN20 assessed as fungal growth inhibition incubated for 48 hrs by broth microdilution method; type: functional
[40] = test system: Candida albicans; experiment: Antifungal activity against Candida albicans 22 assessed as fungal growth inhibition incubated for 48 hrs by broth microdilution method; type: functional
[41] = test system: Candida parapsilosis; experiment: Antifungal activity against Candida parapsilosis 106 assessed as fungal growth inhibition incubated for 48 hrs by broth microdilution method; type: functional; details: Lodderomyces parapsilosis
[42] = test system: Candida parapsilosis; experiment: Antifungal activity against Candida parapsilosis 105 assessed as fungal growth inhibition incubated for 48 hrs by broth microdilution method; type: functional; details: Lodderomyces parapsilosis
[43] = test system: Cryptococcus neoformans; experiment: Antifungal activity against Cryptococcus neoformans HN15 assessed as fungal growth inhibition incubated for 48 hrs by broth microdilution method; type: functional
[44] = test system: Cryptococcus neoformans; experiment: Antifungal activity against Cryptococcus neoformans SH68 assessed as fungal growth inhibition incubated for 48 hrs by broth microdilution method; type: functional
[45] = test system: Candida parapsilosis; experiment: Antifungal activity against Candida parapsilosis ATCC22019 assessed as fungal growth inhibition incubated for 48 hrs by broth microdilution method; type: functional; details: Lodderomyces parapsilosis
[46] = Antifungal activity against Cryptococcus gattii E566 assessed as fungal growth inhibition incubated for 48 hrs by broth microdilution method; type: functional, Cryptococcus gattii VGI
[47] = test system: Pichia kudriavzevii; experiment: Antifungal activity against Candida krusei 474 assessed as fungal growth inhibition incubated for 48 hrs by broth microdilution method; type: functional
[48] = test system: [Candida] auris; experiment: Antifungal activity against Candida auris 888 assessed as fungal growth inhibition incubated for 48 hrs by broth microdilution method; type: functional; details: Candidozyma auris
[49] = test system: Candida parapsilosis; experiment: Antifungal activity against Candida parapsilosis 104 assessed as fungal growth inhibition incubated for 48 hrs by broth microdilution method; type: functional; details: Lodderomyces parapsilosis
[50] = test system: Candida tropicalis; experiment: Antifungal activity against Candida tropicalis 178 assessed as fungal growth inhibition incubated for 48 hrs by broth microdilution method; type: functional
[51] = test system: Cryptococcus neoformans; experiment: Antifungal activity against Cryptococcus neoformans 445 assessed as fungal growth inhibition incubated for 48 hrs by broth microdilution method; type: functional
[52] = test system: Candida tropicalis; experiment: Antifungal activity against Candida tropicalis 182 assessed as fungal growth inhibition incubated for 48 hrs by broth microdilution method; type: functional
[53] = test system: Cryptococcus neoformans; experiment: Antifungal activity against Cryptococcus neoformans HN1 assessed as fungal growth inhibition incubated for 48 hrs by broth microdilution method; type: functional

## CCN(CC)c1ccc(C(NC(=O)C(C)C)c2ccc3cccnc3c2O)cc1 (stereo not drawn)
[1]
  MIC: 0.063 µg/mL (≈ 0.161 µM)
[2]
  MIC: 0.032 µg/mL (≈ 0.0817 µM)
[3]
  MIC: 0.032 µg/mL (≈ 0.0817 µM)
[4]
  MIC: < 0.016 µg/mL
[5]
  MIC: 1 µg/mL (≈ 2.55 µM)
[6]
  MIC: 0.016 µg/mL (≈ 0.0409 µM)
[7]
  MIC: 0.031 µg/mL (≈ 0.0792 µM)
[8]
  MIC: 0.032 µg/mL (≈ 0.0817 µM)
[9]
  MIC: 0.125 µg/mL (≈ 0.319 µM)
[10]
  MIC: 0.063 µg/mL (≈ 0.161 µM)
[11]
  MIC: 0.125 µg/mL (≈ 0.319 µM)
[12]
  MIC: 0.5 µg/mL (≈ 1.28 µM)
[13]
  MIC: 0.125 µg/mL (≈ 0.319 µM)
[14]
  MIC: 0.016 µg/mL (≈ 0.0409 µM)
[15]
  MIC: 0.063 µg/mL (≈ 0.161 µM)
[16]
  MIC: 0.125 µg/mL (≈ 0.319 µM)
[17]
  MIC: ≤ 0.125 µg/mL
[18]
  MIC: 0.016 µg/mL (≈ 0.0409 µM)
[19]
  MIC: 0.063 µg/mL (≈ 0.161 µM)
[20]
  MIC: 0.032 µg/mL (≈ 0.0817 µM)
[21]
  IC50 at 24 h: 72.6 µg/mL (≈ 185 µM)
[22]
  MIC: 0.031 µg/mL (≈ 0.0792 µM)
[23]
  MIC: 0.016 µg/mL (≈ 0.0409 µM)
[24]
  MIC: 0.125 µg/mL (≈ 0.319 µM)
[25]
  MIC: 0.25 µg/mL (≈ 0.639 µM)
[26]
  MIC: 0.032 µg/mL (≈ 0.0817 µM)
[27]
  MIC: 0.125 µg/mL (≈ 0.319 µM)
[28]
  MIC: 0.125 µg/mL (≈ 0.319 µM)
[29]
  MIC: 0.063 µg/mL (≈ 0.161 µM)
[30]
  MIC: 0.125 µg/mL (≈ 0.319 µM)
[31]
  MIC: 0.063 µg/mL (≈ 0.161 µM)
[32]
  MIC: 0.032 µg/mL (≈ 0.0817 µM)
[33]
  MIC: 0.125 µg/mL (≈ 0.319 µM)
[34]
  MIC: 0.063 µg/mL (≈ 0.161 µM)
[35]
  MIC: 0.063 µg/mL (≈ 0.161 µM)
[36]
  MIC: 0.016 µg/mL (≈ 0.0409 µM)
[37]
  MIC: 0.063 µg/mL (≈ 0.161 µM)
[38]
  MIC: 0.5 µg/mL (≈ 1.28 µM)
[39]
  MIC: 0.016 µg/mL (≈ 0.0409 µM)
[40]
  MIC: 0.063 µg/mL (≈ 0.161 µM)
[41]
  MIC: 0.063 µg/mL (≈ 0.161 µM)
[42]
  MIC: 0.125 µg/mL (≈ 0.319 µM)
[43]
  MIC: 0.063 µg/mL (≈ 0.161 µM)
[44]
  MIC: < 0.016 µg/mL
[45]
  MIC: 0.125 µg/mL (≈ 0.319 µM)
[46]
  MIC: 0.031 µg/mL (≈ 0.0792 µM)
[47]
  MIC: 0.125 µg/mL (≈ 0.319 µM)
[48]
  MIC: 0.25 µg/mL (≈ 0.639 µM)
[49]
  MIC: 0.016 µg/mL (≈ 0.0409 µM)
[50]
  MIC: 0.032 µg/mL (≈ 0.0817 µM)
[51]
  MIC: 0.016 µg/mL (≈ 0.0409 µM)
[52]
  MIC: 0.125 µg/mL (≈ 0.319 µM)
[53]
  MIC: 0.063 µg/mL (≈ 0.161 µM)
